Reference: US20250352590A1, “Functional postbiotic composition for homeostatic vaginal care” (Seed Health Inc., priority 2024, published 2025)

Tests used:
[1] = tested on: EpiVaginal (VEC-100) 3-D tissues; assay: Barrier integrity by transepithelial electrical resistance (TEER) in EpiVaginal tissues; type: cell-based; conditions: 24 hr exposure; for TEER avg. (% of VC): tissues in triplicate, normalized to average TEER of vehicle control VC
Method: (§1) EpiVaginal (VEC-100) 3-D tissues, produced by MatTek Corporation, were used to evaluate eight test conditions plus a positive control known to have negative effects on tissue viability and barrier function (nonoxynol-9); the conditions tested are given in Table 3 below. Barrier integrity was measured at baseline, and tissues were treated in triplicate with test articles for 24 hours. Three tissues were left untreated to serve as negative control (NC); three tissues were treated with 4% nonoxynol-9 to serve as positive control (PC); and three tissues were dosed with media to serve as vehicle control (VC). At the end of 24 hr exposure to the test articles, barrier integrity was measured using transepithelial electrical resistance (TEER) and two tissues were used to assess tissue viability with the MTT assay. From each treatment group, one tissue was fixed in 10% formalin and processed for H&E staining for histological analysis.
Throughout this Example and Example 8 below, “VS-01” refers to a consortium of three Lactobacillus crispatus strains: LUCA011 (ATCC Accession Deposit No. PTA-127214) at a concentration of 3.70·10^10 CFU/g, LUCA009 (ATCC Accession Deposit No. PTA-127213) at a concentration of 8.60·10^9 CFU/g, and LUCA103 (ATCC Accession Deposit No. PTA-127218) at a concentration of 2.50·10^10 CFU/g. A stock of 10^6 CFU/mL of the combined strains was used for testing. A comparator strain, L. crispatus ATCC 33197, was sourced from the American Type Culture Collection, and it was determined by bioinformatic analysis that the genome of this strain had between 99.0% and 99.2% average nucleotide identity (ANI) with each of the three VS-01 strains.
The concentration of VS-01 most relevant to in vivo exposure in the VEC-100 model (10^6 CFU/mL) was determined using two different approaches: (1) Comparison of the exposure per unit area of vaginal surface area between VS-01 in vivo and VS-01 in the VEC-100 model. As known from the literature, the average surface area of the human vagina ranges from 65.73 to 107.07 cm^2 with a mean of 87.46 cm^2 and a standard deviation of 7.80 cm^2. If an 850 mg tablet as described in Example 3 instantaneously dissolved, the estimated coverage would be 9.7 mg/cm^2 (850 mg/87.46 cm^2). This most closely corresponds to a 1:100 dilution of the tablet and can be considered an upper bound, given that the tablet dissolves slowly over a 24-hour period. (2)
Comparison of the ratio of L. crispatus cells to vaginal epithelial cells in vivo and in the VEC-100 model. […] The Mattek model contains between about 350,000 and about 500,000 cells at a depth of three to five layers. If 100,000 epithelial cells are exposed at the surface, exposure to 10^6 bacterial cells produces a reasonable estimate of a 10:1 bacterial cell/epithelial cell ratio.
An estimate of the concentration of D-lactate most relevant to in vivo exposure was obtained considering tablet dissolution kinetics. Tablets as described in Example 3 are slow-release formulations, dissolving over the course of […]. The volume of cervicovaginal fluid (CVF) present in the vagina is variable, ranging from about 1 mL to about 4 mL, with a discharge rate of about 2 mL to about 5 mL over 24 hours; thus, the dissolution rate of a tablet as described in Example 3 would be about 71 mg/hour. D-lactate concentrations of tablets as described in Example 3 range from about 34 mg/tablet to about 44 mg/tablet. Estimating that 8.4% of an 850 mg tablet dissolves per hour (71 mg/hour divided by 850 mg/tablet) gives an estimated in vivo D-lactate concentration range of 31.7 mM to 40.44 mM D-lactate. Therefore, testing 10 mM and 100 mM D-lactate in this Example covers the physiological range of estimated exposure given the expected variability in the exact concentration of D-lactate per tablet. […]

[2] = tested on: EpiVaginal (VEC-100) 3-D tissues; assay: Tissue viability by MTT assay in EpiVaginal tissues; type: cell-based; conditions: 24 hr exposure
Method: as §1

Compound	Barrier integrity / TEER, result in words [1]	TEER avg. (% of VC) [1]	TEER vs NC ([1]; relative to untreated negative control NC)	TEER vs VC ([1]; relative to vehicle control VC)	Cytotoxicity / tissue viability (MTT), result in words [2]
C[C@@H](O)C(=O)O [D-lactate]	did not result in significant improvements in TEER over VC				
C[C@@H](O)C(=O)O [TA6, D-lactate]		128.4 % of VC			
C[C@@H](O)C(=O)O [TA7, D-lactate]		114.8 % of VC			
nonoxynol-9 [PC]	barrier disruption	0.6 % of VC	0.2%	0.6%	severe cytotoxicity
